Tests used:
[1] = molecular target: T1, Arabidopsis HPPD (SEQ ID NO:53), wild-type (Arabidopsis thaliana, UniProt P93836); test: HPPD activity assay (HGA by HPLC), wild-type enzyme characterization; format: biochemical; settings: Arabidopsis HPPD
T1 construct: His6 (N); made in house; host or cells: E. coli BL21 (DE3)
T1 sequence (P93836 1-445): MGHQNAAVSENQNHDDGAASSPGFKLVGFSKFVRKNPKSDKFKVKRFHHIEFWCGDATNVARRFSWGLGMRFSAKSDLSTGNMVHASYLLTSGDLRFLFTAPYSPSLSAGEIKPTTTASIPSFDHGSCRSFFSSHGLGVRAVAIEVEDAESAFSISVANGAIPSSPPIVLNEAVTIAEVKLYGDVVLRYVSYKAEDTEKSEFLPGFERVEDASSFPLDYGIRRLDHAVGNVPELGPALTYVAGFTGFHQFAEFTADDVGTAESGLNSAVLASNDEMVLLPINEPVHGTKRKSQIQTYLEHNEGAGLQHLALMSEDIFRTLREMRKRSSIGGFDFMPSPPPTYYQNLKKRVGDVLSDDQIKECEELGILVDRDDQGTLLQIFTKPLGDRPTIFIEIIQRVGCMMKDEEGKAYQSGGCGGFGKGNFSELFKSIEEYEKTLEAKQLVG
Procedure: (§1) HPPD produces homogentisic acid and CO2 from 4-hydroxyphenylpyruvate (4-HPP) and 02. The activity assay for HPPD is based on the analysis of homogentisic acid by reversed phase HPLC. The assay mixture can contain 150 mM potassium phosphate buffer pH 7.0, 50 mM L-ascorbic acid, 100 μM Catalase (Sigma-Aldrich), 1 μM FeSO4 and 0.2 units of purified HPPD enzyme in a total volume of 505 μl. 1 unit is defined as the amount of enzyme that is required to produce 1 nmol of HGA per minute at 20° C.
(§2) After a preincubation of 30 min the reaction is started by adding 4-HPP to a final concentration of 0.05 mM. The reaction is allowed to proceed for 45 min at room temperature. The reaction is stopped by the addition of 50 μl of 4.5 M phosphoric acid. The sample is filtered using a […] pore size PVDF filtration device.
(§3) 5 μl of the cleared sample is analyzed on an UPLC HSS T3 column (particle size 1.8 μm, dimensions 2.1×50 mm; Waters) by isocratic elution using 90% 20 mM NaH2PO4 pH 2.2, 10% methanol (v/v).
(§4) HGA is detected electrochemically at 750 mV (mode: DC; polarity: positive) and quantified by integrating peak areas (Empower software; Waters).
(§5) Inhibitors are dissolved in DMSO (dimethylsulfoxide) to a concentration of 0.5 mM. From this stock solution serial five-fold dilutions are prepared in DMSO, which are used in the assay. The respective inhibitor solution accounts for 1% of the assay volume. […] Activities are normalized by setting the uninhibited enzyme activity to 100%. IC50 values are calculated using non-linear regression.
(§6) Using methods which are described in the above examples or well known in the art, purified, recombinant wild-type HPPD enzymes are characterized with respect to their kinetic properties and sensitivity towards HPPD inhibiting herbicides. Apparent michaelis constants (Km) and maximal reaction velocities (Vmax) are calculated by non-linear regression with the software GraphPad Prism 5 (GraphPad Software, La Jolla, USA) using a substrate inhibition model. […] Weighted means (by standard error) of Km and IC50 values are calculated from at least three independent experiments.
(§7) Field performance of the HPPD enzyme, which is used as a herbicide tolerance trait, may depend not only on its lack of sensitivity towards HPPD inhibiting herbicides but also on its activity. To assess the potential performance of a herbicide tolerance trait a tolerance index (TI) is calculated using the following formula: […]
(§8) Easy comparison and ranking of each trait is enabled by normalizing tolerance indexes on Arabidopsis wild-type HPPD.

[2] = molecular target: T2, Hordeum HPPD (SEQ ID NO:2), wild-type (Hordeum vulgare, UniProt O48604, A164G/R146V/R147D/R148G); test: as above; format: biochemical; settings: Hordeum HPPD
T2 construct: His (N); made in house; host or cells: E. coli BL21 (DE3)
Procedure: as §1, §2, §3, §4, §5, §6, §7, §8

[3] = apparent Km, read-out: Km [μM] (4-HPP)
[4] = apparent kcat from Vmax, substrate 4-HPP

T2 sequence (O48604 whole entry R146V/R147D/R148G/A164G): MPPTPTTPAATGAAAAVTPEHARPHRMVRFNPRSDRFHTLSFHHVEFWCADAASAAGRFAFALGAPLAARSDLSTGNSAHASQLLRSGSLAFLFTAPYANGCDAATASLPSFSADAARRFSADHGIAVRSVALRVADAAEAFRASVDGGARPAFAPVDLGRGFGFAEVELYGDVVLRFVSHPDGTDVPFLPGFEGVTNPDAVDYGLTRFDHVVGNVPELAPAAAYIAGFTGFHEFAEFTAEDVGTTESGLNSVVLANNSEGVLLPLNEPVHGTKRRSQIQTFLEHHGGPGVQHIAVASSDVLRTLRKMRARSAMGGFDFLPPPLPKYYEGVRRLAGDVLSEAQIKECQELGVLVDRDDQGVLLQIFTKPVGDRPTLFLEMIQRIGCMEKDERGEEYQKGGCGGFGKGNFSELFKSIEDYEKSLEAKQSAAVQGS

O=C(O)C(=O)Cc1ccc(O)cc1 [Inhibitor 4-HPP, 4-hydroxyphenylpyruvate, reference compound]
Km [1, 3]: 13 µM
kcat [1, 4]: 12.9 S^−1
Km [2, 3]: 26 µM
kcat [2, 4]: 11.5 S^−1
